Measured values taken from ChEMBL document CHEMBL5500373, “Lead optimization based design, synthesis, and pharmacological evaluation of quinazoline derivatives as multi-targeting agents for Alzheimer's disease treatment” (Eur J Med Chem, 2024).
Activity calls are given as the source filed them. The calls are words filed in the database; no cut-off is given here.

Columns and labels:
[1] = Acute toxicity in female Wistar rat assessed as histopathological changes in heart at 100 to 500 mg/kg, po measured after 14 days; format: organism-based; details: in vivo, 336 h, dose 100-500 mg/kg, time 14 day
[2] = Acute toxicity in female Wistar rat assessed as effect on renal functional parameters at 100 to 500 mg/kg, po measured after 14 days; format: organism-based; details: in vivo, 336 h, dose 100-500 mg/kg, time 14 day
[3] = target: Amyloid-beta precursor protein (Homo sapiens) (UniProt P05067); experiment: Inhibition of human AChE induced amyloid beta (1 to 42 residues) (unknown origin) aggregation assessed as reduction in NFI measured after 48 hrs by thioflavin T based fluorescence analysis; details: dose 5-20 µM
Sequence of Amyloid-beta precursor protein (Homo sapiens) (P05067 whole entry, the tested form may be a part): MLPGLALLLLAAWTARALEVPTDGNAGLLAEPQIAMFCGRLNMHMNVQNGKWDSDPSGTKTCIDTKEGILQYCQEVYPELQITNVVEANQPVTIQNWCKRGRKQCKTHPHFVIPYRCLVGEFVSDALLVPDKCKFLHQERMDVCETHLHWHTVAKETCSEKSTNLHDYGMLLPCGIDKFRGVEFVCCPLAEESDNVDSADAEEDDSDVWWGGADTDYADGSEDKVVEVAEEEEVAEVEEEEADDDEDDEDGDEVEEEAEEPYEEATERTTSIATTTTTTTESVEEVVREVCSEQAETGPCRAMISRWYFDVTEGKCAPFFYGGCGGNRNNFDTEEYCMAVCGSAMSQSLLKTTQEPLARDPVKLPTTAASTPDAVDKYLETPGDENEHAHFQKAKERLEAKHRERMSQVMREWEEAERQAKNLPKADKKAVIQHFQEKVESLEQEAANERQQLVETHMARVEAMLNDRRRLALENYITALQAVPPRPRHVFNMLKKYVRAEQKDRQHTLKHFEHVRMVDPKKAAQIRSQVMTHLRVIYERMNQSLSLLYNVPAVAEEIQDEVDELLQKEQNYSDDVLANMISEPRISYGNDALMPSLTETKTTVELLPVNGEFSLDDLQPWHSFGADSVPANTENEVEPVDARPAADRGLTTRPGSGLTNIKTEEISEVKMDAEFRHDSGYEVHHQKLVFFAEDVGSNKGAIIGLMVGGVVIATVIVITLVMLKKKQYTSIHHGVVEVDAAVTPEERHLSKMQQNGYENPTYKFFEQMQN

Drosophila melanogaster [4] = experiment: Reversal of ey-GAL4 driven UAS-amyloid beta induced cellular toxicity in Drosophila melanogaster Oregon R-positive model assessed as increase in rescued eye phenotype at 10 uM by trinocular stereo-zoom microscope relative to control; format: functional
Drosophila melanogaster [5] = experiment: Reversal of ey-GAL4 driven UAS-amyloid beta induced cellular toxicity in Drosophila melanogaster Oregon R-positive model assessed as increase in cell viability in gut at 10 uM by MTT assay relative to control; format: functional
[6] = Acute toxicity in female Wistar rat assessed as adverse side effects at 100 to 500 mg/kg, po measured after 14 days; format: organism-based; details: in vivo, 336 h, dose 100-500 mg/kg, time 14 day
[7] = Elimination half life in male Wistar rat at 20 mg/kg, po measured upto 32 hrs by high-performance liquid chromatography; format: ADME, organism-based; details: in vivo, read-out: beta t1/2 (converted)
[8] = Tmax in male Wistar rat at 20 mg/kg, po measured upto 32 hrs by high-performance liquid chromatography; format: ADME, organism-based; details: in vivo
[9] = Toxicity in Drosophila melanogaster Oregon R-positive assessed as reduction in eclosed flies at pupal stage at 100 uM measured until 15 days relative to control; parameters: scale not given: the % may be the effect or the level left; details: 360 h, time 15 day
Cholinesterase = Cholinesterase (Homo sapiens, UniProt P06276); experiment: Inhibition of human serum BChE using butyrylthiocholine iodide as substrate preincubated for 30 mins followed by substrate addition and measured after 30 mins by DTNB based Ellman's method
Sequence of Cholinesterase (P06276 whole entry, the tested form may be a part): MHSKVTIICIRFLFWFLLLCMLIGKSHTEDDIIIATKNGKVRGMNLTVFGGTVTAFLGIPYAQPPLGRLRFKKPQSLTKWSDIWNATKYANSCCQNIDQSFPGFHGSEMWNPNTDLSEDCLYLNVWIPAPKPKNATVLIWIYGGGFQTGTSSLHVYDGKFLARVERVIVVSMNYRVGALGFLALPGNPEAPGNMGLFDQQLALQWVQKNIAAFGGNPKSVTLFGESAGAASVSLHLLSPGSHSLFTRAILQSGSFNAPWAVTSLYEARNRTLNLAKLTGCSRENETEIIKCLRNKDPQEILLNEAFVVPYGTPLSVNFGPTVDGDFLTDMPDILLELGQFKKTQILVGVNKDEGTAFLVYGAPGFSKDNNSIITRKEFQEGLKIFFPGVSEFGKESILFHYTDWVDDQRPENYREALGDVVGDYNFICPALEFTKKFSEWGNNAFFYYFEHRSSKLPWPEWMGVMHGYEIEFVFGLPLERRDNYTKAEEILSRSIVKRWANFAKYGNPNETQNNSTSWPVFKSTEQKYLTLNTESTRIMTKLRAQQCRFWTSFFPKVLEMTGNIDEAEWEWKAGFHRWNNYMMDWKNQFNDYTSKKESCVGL

[10] = target: Amyloid-beta precursor protein (Homo sapiens) (UniProt P05067); experiment: Inhibition of amyloid beta (1 to 42 residues) (unknown origin) aggregation assessed as reduction in massive oligomers measured after 3 days by AFM analysis; details: time 3.0 day
[11] = Toxicity in Drosophila melanogaster Oregon R-positive assessed as reduction in cell viability upto 50 uM measured until 15 days; details: 360 h, time 15 day
[12] = Acute toxicity in female Wistar rat assessed as histopathological changes in kidneys at 100 to 500 mg/kg, po measured after 14 days; format: organism-based; details: in vivo, 336 h, dose 100-500 mg/kg, time 14 day
Drosophila melanogaster [13] = experiment: Reversal of ey-GAL4 driven UAS-amyloid beta induced cellular toxicity in Drosophila melanogaster Oregon R-positive model assessed as increase in cell viability in gut at 1 uM by MTT assay relative to control; format: functional
[14] = Acute toxicity in female Wistar rat assessed as signs of toxicity at 100 to 500 mg/kg, po measured after 14 days; format: organism-based; details: in vivo, 336 h, dose 100-500 mg/kg, time 14 day
Drosophila melanogaster [15] = experiment: Reversal of ey-GAL4 driven UAS-amyloid beta induced cellular toxicity in Drosophila melanogaster Oregon R-positive model assessed as reduction in mild ommatidial death eye phenotype at 10 uM by trinocular stereo-zoom microscope relative to control; format: functional; parameters: scale not given: the % may be the effect or the level left
Drosophila melanogaster [16] = experiment: Reversal of ey-GAL4 driven UAS-amyloid beta induced cellular toxicity in Drosophila melanogaster Oregon R-positive model assessed as increase in rescued eye phenotype at 15 uM by trinocular stereo-zoom microscope relative to control; format: functional
Drosophila melanogaster [17] = experiment: Reversal of ey-GAL4 driven UAS-amyloid beta induced cellular toxicity in Drosophila melanogaster Oregon R-positive model assessed as reduction in severe ommatidial death eye phenotype at 15 uM by trinocular stereo-zoom microscope relative to control; format: functional; parameters: scale not given: the % may be the effect or the level left
[18] = Cmax in male Wistar rat at 20 mg/kg, po measured upto 32 hrs by high-performance liquid chromatography; format: ADME, organism-based; details: in vivo
[19] = target: Amyloid-beta precursor protein (Homo sapiens) (UniProt P05067); experiment: Inhibition of self induced amyloid beta (1 to 42 residues) (unknown origin) aggregation at 5 to 20 uM measured after 48 hrs by thioflavin T based fluorescence analysis relative to control; details: dose 5-20 µM
Rattus norvegicus [20] = experiment: (§1) Reversal of amyloid beta (1 to 42 residues) induced cognitive impairment in female Wistar rat assessed as increase in neuronal arrangements in brain at 20 mg/kg, po pretreated with amyloid beta for 7 days followed by compound administration and measured after 5 days by Nissls staining based light microscopic analysis; format: functional, organism-based; details: time 5.0 day
Acetylcholinesterase = Acetylcholinesterase (Homo sapiens, UniProt P22303); experiment: Inhibition of human AChE using acetylthiocholine iodide as substrate assessed as reduction in enzyme activity at 10 to 100 times IC50 incubated for 30 mins
Sequence of Acetylcholinesterase (P22303 whole entry, the tested form may be a part): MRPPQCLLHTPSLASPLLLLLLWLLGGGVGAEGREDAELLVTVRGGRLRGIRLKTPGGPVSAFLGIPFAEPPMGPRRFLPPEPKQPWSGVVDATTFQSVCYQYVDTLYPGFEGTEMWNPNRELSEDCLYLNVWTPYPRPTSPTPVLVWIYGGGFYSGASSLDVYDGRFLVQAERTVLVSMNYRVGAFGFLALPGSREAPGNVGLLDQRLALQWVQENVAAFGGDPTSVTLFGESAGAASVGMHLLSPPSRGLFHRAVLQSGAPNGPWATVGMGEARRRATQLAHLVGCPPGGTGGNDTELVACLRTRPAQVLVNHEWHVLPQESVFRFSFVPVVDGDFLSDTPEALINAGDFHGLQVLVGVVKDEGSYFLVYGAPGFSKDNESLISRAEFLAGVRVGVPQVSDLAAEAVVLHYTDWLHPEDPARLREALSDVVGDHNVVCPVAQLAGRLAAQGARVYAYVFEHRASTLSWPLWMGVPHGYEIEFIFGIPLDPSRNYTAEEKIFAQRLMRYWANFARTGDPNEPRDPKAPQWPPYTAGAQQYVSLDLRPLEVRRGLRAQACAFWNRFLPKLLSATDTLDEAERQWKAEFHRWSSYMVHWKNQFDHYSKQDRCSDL

Drosophila melanogaster [21] = experiment: Reversal of ey-GAL4 driven UAS-amyloid beta induced cellular toxicity in Drosophila melanogaster Oregon R-positive model assessed as increase in cell viability in gut at 5 uM by MTT assay relative to control; format: functional
[22] = MRT in male Wistar rat at 20 mg/kg, po measured upto 32 hrs by high-performance liquid chromatography; format: ADME, organism-based; details: in vivo
[23] = Acute toxicity in female Wistar rat assessed as effect on hepatic functional parameters at 100 to 500 mg/kg, po measured after 14 days; format: organism-based; details: in vivo, 336 h, dose 100-500 mg/kg, time 14 day
Rattus norvegicus [24] = experiment: Reversal of amyloid beta (1 to 42 residues) induced cognitive impairment in female Wistar rat assessed as increase in total platform crossing at 20 mg/kg, po pretreated with amyloid beta for 7 days followed by compound administration and measured after 5 days by Morris water maze test; format: functional, organism-based; details: time 5.0 day
[25] = Acute toxicity in female Wistar rat assessed as histopathological changes in liver at 100 to 500 mg/kg, po measured after 14 days; format: organism-based; details: in vivo, 336 h, dose 100-500 mg/kg, time 14 day
in vitro = details: PAMPA
[26] = target: Amyloid-beta precursor protein (Homo sapiens) (UniProt P05067); experiment: Inhibition of self induced amyloid beta (1 to 42 residues) (unknown origin) aggregation assessed as reduction in NFI measured after 48 hrs by thioflavin T based fluorescence analysis; details: dose 5-20 µM
[27] = AUC (0 to t) in male Wistar rat at 20 mg/kg, po measured upto 32 hrs by high-performance liquid chromatography; format: ADME, organism-based; details: in vivo
[28] = Drug concentration in male Wistar rat brain homogenate at 10 mg/kg, po measured after 4 days; format: ADME, organism-based; details: time 4 day, read-out: Ct
[29] = Toxicity in Drosophila melanogaster Oregon R-positive assessed as reduction in eclosed flies at embryonic stage at 200 uM measured until 15 days relative to control; parameters: scale not given: the % may be the effect or the level left; details: 360 h, time 15 day
[30] = Acute toxicity in female Wistar rat assessed as histopathological changes in brain at 100 to 500 mg/kg, po measured after 14 days; format: organism-based; details: in vivo, 336 h, dose 100-500 mg/kg, time 14 day
Rattus norvegicus [31] = experiment: as §1, with “density” for “arrangements”; format: functional, organism-based; details: time 5.0 day
Rattus norvegicus [32] = experiment: Reversal of amyloid beta (1 to 42 residues) induced cognitive impairment in female Wistar rat assessed as reduction in escape latency time at 20 mg/kg, po pretreated with amyloid beta for 7 days followed by compound administration and measured after 5 days by Morris water maze test; format: functional, organism-based; details: time 5.0 day
Drosophila melanogaster [33] = experiment: Reversal of ey-GAL4 driven UAS-amyloid beta induced cellular toxicity in Drosophila melanogaster Oregon R-positive model assessed as reduction in severe ommatidial death eye phenotype at 10 uM by trinocular stereo-zoom microscope relative to control; format: functional; parameters: scale not given: the % may be the effect or the level left
Beta-secretase 1 = Beta-secretase 1 (Homo sapiens, UniProt P56817); experiment: Inhibition of human BACE-1 measured after 2 hrs by FRET assay
Sequence of Beta-secretase 1 (P56817 whole entry): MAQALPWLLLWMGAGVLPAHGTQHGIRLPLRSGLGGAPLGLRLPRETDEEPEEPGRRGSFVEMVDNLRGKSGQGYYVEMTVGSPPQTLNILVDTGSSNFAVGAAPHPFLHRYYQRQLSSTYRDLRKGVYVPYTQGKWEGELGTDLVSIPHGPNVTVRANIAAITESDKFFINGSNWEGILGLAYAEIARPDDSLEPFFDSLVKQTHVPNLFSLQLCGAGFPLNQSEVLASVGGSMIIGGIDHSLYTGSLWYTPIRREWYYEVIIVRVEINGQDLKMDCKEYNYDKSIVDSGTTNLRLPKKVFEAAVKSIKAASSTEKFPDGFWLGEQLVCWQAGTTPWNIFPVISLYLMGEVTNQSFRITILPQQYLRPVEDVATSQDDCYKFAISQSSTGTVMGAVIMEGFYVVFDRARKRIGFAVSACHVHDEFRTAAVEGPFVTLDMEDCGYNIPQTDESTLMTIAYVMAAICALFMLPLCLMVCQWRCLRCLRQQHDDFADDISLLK

With `COc1cc2ncnc(N3CCN(Cc4ccccc4)CC3)c2cc1OC` the Activity [1] was “Non-Toxic”, the Activity [2] was “Non-Toxic” and the inhibition [3] was “Dose-Dependent Effect”. For the same compound, the Activity (Drosophila melanogaster [4]) was 36.6%, the Activity (Drosophila melanogaster [5]) was 62% and the Activity [6] was “Non-Toxic”. It also gave a half-life [7] of 3.11 h, a Tmax [8] of 3 h and an Activity [9] of 65%. The IC50 (Cholinesterase) was over 10000 nM, the inhibition [10] was “Active” and the Activity [11] was “Non-Toxic”. For the same compound, the Activity [12] was “Non-Toxic”, the Activity (Drosophila melanogaster [13]) was 69% and the Activity [14] was “Non-Toxic”. For the same compound, the Activity (Drosophila melanogaster [15]) was 37%, the Activity (Drosophila melanogaster [16]) was 57% and the Activity (Drosophila melanogaster [17]) was 20%. For the same compound, the Cmax [18] was 1340 ng/mL, the inhibition [19] was 27.3% and the Activity (Rattus norvegicus [20]) was “Active”. The inhibition (Acetylcholinesterase) was “Active”, the Activity (Drosophila melanogaster [21]) was 82% and the MRT [22] was 6.07 h. For the same compound, the Activity [23] was “Non-Toxic”, the Activity (Rattus norvegicus [24]) was “Active” and the Activity [25] was “Non-Toxic”. For the same compound, the Papp at 18 h, 25 ug/ml (in vitro) was 6.03 ×10⁻⁶ cm/s, the inhibition [26] was “Dose-Dependent Effect” and the AUC(0-t) at 32 h [27] was 6990 ng·h/mL. For the same compound, the concentration at 96 h [28] was 633 ng/mL, the Activity [29] was 100% and the Activity [30] was “Non-Toxic”. For the same compound, the Activity (Rattus norvegicus [31]) was “Active”, the Activity (Rattus norvegicus [32]) was “Active” and the Activity (Drosophila melanogaster [33]) was 23.3%. For the same compound, the IC50 (Beta-secretase 1) was 231 nM.
